Assays:
[1] = Stability of TSC versus pH; format: physicochemical
[2] = Absorption after intramuscular injection of TSC with gamma cyclodextrin; format: in vivo; settings: injected intramuscularly with gamma cyclodextrin; rats
[3] = tested on: healthy volunteers; experiment: Transcutaneous oximetry (tcpO2) pharmacodynamic study, single IV bolus, subjects breathing 100% O2; format: in vivo, human; settings: for Number (%) of Subjects with a TcpO2 increase during Period 2: TSC-treated N = 24, all doses
Experimental: This is a randomized, double-blind, placebo-controlled, pharmacokinetic, pharmacodynamics study of Trans Sodium Crocetinate (TSC) utilizing Transcutaneous Oximetry Measurement (tcpO2) in healthy volunteers breathing 100% O2. Study assessments include tcpO2 levels, SpO2, and PK.
TcpO2 sensor electrodes are applied to the left or right lower extremity, per PI discretion. Sensor electrode temperature is preset to 45° C., to allow maximum vasodilation. Risk of sensor site superficial burn is minimal given the relatively brief testing period. Four (4) sensors are applied to the following locations: • Sensor 1: Mid-dorsum of the foot • Sensor 2: 10 cm distal to the lateral femoral epicondyle • Sensor 3: 5 cm proximal to the anterior aspect of the lateral malleolus • Sensor 4: 5 cm proximal from the center of the medial malleolus
After the tcpO2 sensors have been applied and tested, subjects are placed on O2 via a simple facemask at 6 L/minute, and remain on O2 for 70 minutes prior to study drug administration. The first 10 minutes allow for equilibration of O2 levels, and the subsequent 60 minutes serve as the baseline period. TcpO2 values and SpO2 are recorded every 5 minutes during the above periods. Baseline vital signs are measured within 10 minutes prior to study drug dosing.
At the end of the 70-minute equilibration/baseline period, subjects continue on O2 and receive a single IV bolus injection of TSC at a dose of 0.5, 1.0, 1.5, 2.0 or 2.5 mg/kg, or placebo. After study drug administration, subjects are evaluated for 60 minutes, with tcpO2 values and SpO2 recorded every 5 minutes. In addition to assessment of tcpO2 every 5 minutes, continuous tcpO2 measurements are provided by the TCOM machine in graphical format.
The primary analysis is based on the change over time in the tcpO2 measurements following a single administration of TSC in subjects breathing 100% O2. The time-matched changes from Period 1 (60 minute run-in on 100% O2) to Period 2 (60 minute post-drug administration on 100% O2) serve as the dependent variable in the repeated measures analysis. The 60 minute run-in on 100% O2 is intended to account for the intra-subject variability over time and the time-match differences represent the least biased estimate of the effect of the study drug.
The overall pooled median values across the four TcpO2 sensors are calculated using the median value from each sensor during the same interval. To compare the time-matched changes in TcpO2, a 2-factor (treatment and time) repeated measures (time) analysis of variance (ANOVA) model is used. Contrast statements within the model facilitate comparisons between individual dose arms and placebo over time. Intra-subject changes (Period 2 minus Period 1 in 5-minute intervals) serve as the dependent variable in the model. TcpO2 baseline measures during the 60-minute Period 1 are adjusted for intra-subject variability over time. Time-matched differences between values obtained during Period 1 and Period 2 represent the least biased estimate of the effect of the study drug versus placebo.
Therefore, a supplementary pharmacodynamic analysis on the intra-subject slopes from each period and sensor is performed. For Period 1, on an intra-subject basis, the median value from each of the 12 intervals is used to construct the slope using orthogonal spacing with respect to time. For Period 2, the slope is constructed using the median value from each of the 13 intervals—of note, Period 2 observations include 1- and 2-minute values—in addition to the 5-minute measurements for comparison to the 12 corresponding intervals of Period 1. An additional set of analyses are conducted using the Period 2 intra-subject slopes as the dependent variable. The active dose groups are pooled and the least square means are compared to placebo. This procedure is repeated iteratively, each time removing the next lowest dose group to determine the separation of each cohort's least square means relative to placebo.

[4] = Population pharmacokinetics of TSC in plasma (LC-MS/MS, two-compartment model); format: in vivo, human; design: V2 / V1: unit not given here
Experimental: Prior to and following study drug administration, PK samples are obtained at the below intervals: • Pre-dose (within 10 minutes prior to injection) • 1 minute post end of injection (+1 minute) • 10 minutes post end of injection (±1 minute) • 30 minutes post end of injection (±1 minute) • 1.5 hours post end of injection (±2 minutes)
Plasma is assayed for TSC using LC-MS/MS using prednisone as an internal standard. Sample pre-treatment involves a protein precipitation extraction procedure. Lower limit of quantitation is 10 ng/ml.
For 19 of the 24 subjects included in the PK analysis, TSC concentration (Cp: Concentration in Plasma.) in the 1-minute sample is smaller (often many-fold) compared to the 10-minute sample, most likely a result of sampling too soon after the dose is administered. As a result, all 1-minute samples are excluded from population PK analysis.
Based on previous analyses and examination of drug concentration profiles, a two-compartment model with no covariates fit the data well. To determine whether the systemic parameters should be scaled for body size, three scaling approaches are evaluated: scaling all parameters by weight, allometric scaling (clearances scaled by weight raised to the 0.75 power; distribution volumes scaled by weight), and scaling all parameters by weight raised to an estimated power. The weight normalized model is preferred statistically (evaluated by the decrease in the objective function [similar to a sum of squares]) and by graphics. […] A model is evaluated in which clearance varied as a linear function of dose: […]

[5] = Solubility of TSC in water with gamma-cyclodextrin; format: physicochemical
[6] = population estimate, multiplied by SCALE (WT/75)

Compound: CC(/C=C/C=C(\C)C(=O)[O-])=C\C=C\C=C(C)\C=C\C=C(/C)C(=O)O.[Na+] [TSC, trans sodium crocetinate]
- Stability as a function of pH [1]: more stable at higher pHs
- Absorption into the blood stream [2]: Absorption is quick
- Dose giving the greatest difference in TcpO2 from placebo ([3]; 1-hour treatment period (Period 2)): 2.5 mg/kg
- Peripheral oxygenation levels over time ([3]; Period 2, placebo shows time related decrease): stable or increasing peripheral oxygenation levels over time
- Number (%) of Subjects with a TcpO2 increase during Period 2 ([3]; Sensor 1 (mid-dorsum of the foot), placebo 1/5 (20.0%)): 16/24 (66.7%)
- Intra-subject TcpO2 slopes, Least Square Mean ([3]; Sensor 1, pooling TSC doses ≥1.0 mg/kg, placebo −0.1878, probability 0.0960): 0.3537
- Intra-subject TcpO2 slopes, Least Square Mean ([3]; Sensor 1, pooling TSC doses ≥1.5 mg/kg, placebo −0.1878, probability 0.1702): 0.3027
- Intra-subject TcpO2 slopes, Least Square Mean ([3]; Sensor 1, pooling TSC doses ≥2.0 mg/kg, placebo −0.1878, probability 0.1430): 0.4359
- Intra-subject TcpO2 slopes, Least Square Mean ([3]; Sensor 1, pooling all TSC doses, placebo −0.1878, probability 0.0876): 0.3185
- Number (%) of Subjects with a TcpO2 increase during Period 2 ([3]; Sensor 2, placebo 0/5): 4/24 (16.7%)
- Intra-subject TcpO2 slopes, Least Square Mean ([3]; Sensor 2, pooling TSC doses ≥1.0 mg/kg, placebo −0.3481, probability 0.1139): 0.0656
- Intra-subject TcpO2 slopes, Least Square Mean ([3]; Sensor 2, pooling TSC doses ≥1.5 mg/kg, placebo −0.3481, probability 0.1306): 0.0149
- Intra-subject TcpO2 slopes, Least Square Mean ([3]; Sensor 2, pooling TSC doses ≥2.0 mg/kg, placebo −0.3481, probability 0.0959): 0.0753
- Intra-subject TcpO2 slopes, Least Square Mean ([3]; Sensor 2, pooling all TSC doses, placebo −0.3481, probability 0.0796): 0.0849
- Number (%) of Subjects with a TcpO2 increase during Period 2 ([3]; Sensor 3, placebo 0/5): 3/24 (12.5%)
- Intra-subject TcpO2 slopes, Least Square Mean ([3]; Sensor 3, pooling TSC doses ≥1.0 mg/kg, placebo −0.6320, probability 0.0301): 0.0132
- Intra-subject TcpO2 slopes, Least Square Mean ([3]; Sensor 3, pooling TSC doses ≥1.5 mg/kg, placebo −0.6320, probability 0.0572): 0.0249
- Intra-subject TcpO2 slopes, Least Square Mean ([3]; Sensor 3, pooling TSC doses ≥2.0 mg/kg, placebo −0.6320, probability 0.0421): 0.0846
- Intra-subject TcpO2 slopes, Least Square Mean ([3]; Sensor 3, pooling all TSC doses, placebo −0.6320, probability 0.0186): 0.0151
- Number (%) of Subjects with a TcpO2 increase during Period 2 ([3]; Sensor 4, placebo 0/5): 6/24 (25.0%)
- Intra-subject TcpO2 slopes, Least Square Mean ([3]; Sensor 4, pooling TSC doses ≥1.0 mg/kg, placebo −0.6389, probability 0.0213): 0.0260
- Intra-subject TcpO2 slopes, Least Square Mean ([3]; Sensor 4, pooling TSC doses ≥1.5 mg/kg, placebo −0.6389, probability 0.0436): −0.0909
- Intra-subject TcpO2 slopes, Least Square Mean ([3]; Sensor 4, pooling TSC doses ≥2.0 mg/kg, placebo −0.6389, probability 0.0187): 0.0297
- Intra-subject TcpO2 slopes, Least Square Mean ([3]; Sensor 4, pooling all TSC doses, placebo −0.6389, probability 0.0230): −0.0198
- Increase in TcpO2 levels relative to placebo ([3]; all TSC dose groups, supplemental analysis, Period 2): greater increase in TcpO2 levels than the placebo group
- TCOM readings after TSC administration compared to placebo ([3]; persists up to 60 minutes, most pronounced at 2.0 and 2.5 mg/kg iv): positive trend
- Clearance as a function of dose ([4]; IV bolus 0.5-2.5 mg/kg): clearance decreases at escalating doses
- TSC plasma concentrations as a function of dose ([4]; IV bolus 0.5-2.5 mg/kg, highest at 2.5 mg/kg): increase with escalating dose
- clearance ([4]; human, plasma, population estimate, single IV bolus 0.5-2.5 mg/kg, multiplied by SCALE (WT/75) and FCTR 1-0.53677 · (DOSE/1.5)): 137 mL/min
- Distribution Clearance [4, 6]: 161.176 · SCALE L/day
- V1 [4, 6]: 4.277 · SCALE
- V2 [4, 6]: 46.61 · SCALE
- TSC content of aqueous solutions ([5]; TSC and gamma-cyclodextrin): ≤ 44 milligrams of TSC per ml of solution
- TSC content of solutions ([5]; formulated with a cyclodextrin and mannitol): over 20 mg TSC/ml of solution
